Measured values: US5955500A (G. D. Searle & Co., priority 1997, dated 1999)
Like-named read-outs stand apart in the source and are kept apart here.

Tested on: canine heart
Conditions: for AH time / Heart rate / Mean arterial pressure: mean ± SE
Method: Fourteen adult mongrel dogs of either sex weighing between 19 and 25 kg were prepared for chronic electrophysiologic investigation by implanting epicardial electrodes and an indwelling aortic catheter. The dogs were fasted overnight and initially anesthetized with halothane on the day of surgery. After tracheal intubation, anesthesia was maintained with isoflurane and oxygen via positive pressure ventilation to keep end tidal carbon dioxide within the normal range. Muscular relaxation was induced by pancuronium. A right thoracotomy was performed in the fifth intercostal space. Three bipolar electrode pairs were sutured to the epicardial surface of the right atrial appendage and on the right and left ventricular apex (FIG. 5). A bipolar electrode was sutured to the right atrium close to the anatomical region of the sinoatrial node. A bipolar plunge electrode was placed into base of the interventricular septum to record a His bundle electrogram. An indwelling arterial catheter was placed into the aorta through the left femoral artery after surgical exposure of the artery at the inner side of the hind limb. All electrode leads were subcutaneously tunneled and exited through the skin between the scapulae. Incisions were closed in anatomic fashion and standard postoperative methods of analgesia were provided with 0.015 mg/kg of buprenorphine (Buprenex®, Reckitt & Colman, Hull, UK) and two times of 25 mg/kg cefazolin (Cefazolin Sodium®, SoloPak Laboratories, Elk Groove Village, Ill.) and dogs were allowed to recover from surgery for a period of seven days prior to testing.
Electrical signals from the bipolar electrodes, after suitable amplification in a custom built preamplifier (gain 1000), were filtered in a separate custom designed and built common mode rejection amplifier with a bandpass filter of 10-1000 Hz and individually adjusted for signal strength (maximal gain 400). […] Right atrial appendage (RA), right ventricular apex (RVA) and His bundle electrograms (HB) were recorded, simultaneously. […] All measurements of conduction times were made during spontaneous sinus rhythm.
The His bundle electrode (HBE) was advanced into the base of the interatrial septum from the aortic root. The electrode was advanced from a point located just behind and to the right of the origin of the right coronary artery. The HBE was slowly advanced parallel to the aorta, inferiorly and slightly anteriorly until a well discernible His potential was recorded. AV conduction (AH) interval was measured as the time difference (ms) between the onset of the initial rapid deflection in the RA electrogram to the beginning of the His potential in the HB electrogram. His-ventricular (HV) conduction time interval (ms) was measured from the beginning of the His potential (HBE) to the initial deflection of the QRS complex wave (earliest left ventricular activation) in a simultaneously recorded surface ECG lead II.
As an indicator of automaticity, sinus node recovery time (SNRT) was determined by pacing the right atrial appendage (30 s at 180 and 200 beats/min at 2 msec pulse duration; 2×threshold). SNRT was measured from the last pacing spike to the first spontaneous atrial activity on the His bundle electrogram after cessation of pacing (ms).
A timed extrastimulus (S2) was delivered 300 ms after the preceding pacing spike (S1).
Verapamil was dissolved in 5% dextrose and water ([…]).
During the postoperative period, each dog was trained to stand quietly in a sling during electrophysiological monitoring. Prior to measurement, electrical signals in each dog were monitored to verify the absence of spontaneous arrhythmias other-than normal respiratory sinus arrhythmias.
From the resting dog, 5 channel records were obtained at a sampling rate of 1 kHz per channel for 7 min to determine the following conduction intervals: AH, HV, QRS, QT and HR. A corrected QT interval [QTc=QT interval in ms/ (R-R interval in s)^1/2 ] was also calculated.

Structure (SMILES): COc1ccc(CCN(C)CCCC(C#N)(c2ccc(OC)c(OC)c2)C(C)C)cc1OC (racemic) [80/20S]
- AH time (0.1 mg/kg i.v., 0 min): 90 ± 4 ms
- Heart rate (0.1 mg/kg i.v., 0 min): 125 ± 8 beats per min
- Mean arterial pressure (0.1 mg/kg i.v., 0 min): 96 ± 3 mmHg
- AH time (0.1 mg/kg i.v., 1 min): 95 ± 5 ms
- Heart rate (0.1 mg/kg i.v., 1 min): 126 ± 7 beats per min
- Mean arterial pressure (0.1 mg/kg i.v., 1 min): 99 ± 3 mmHg
- AH time (0.1 mg/kg i.v., 2 min): 97 ± 5 ms
- Heart rate (0.1 mg/kg i.v., 2 min): 119 ± 7 beats per min
- Mean arterial pressure (0.1 mg/kg i.v., 2 min): 98 ± 3 mmHg
- AH time (0.1 mg/kg i.v., 3 min): 98 ± 5 ms
- Heart rate (0.1 mg/kg i.v., 3 min): 115 ± 7 beats per min
- Mean arterial pressure (0.1 mg/kg i.v., 3 min): 99 ± 3 mmHg
- AH time (0.1 mg/kg i.v., 4 min): 96 ± 5 ms
- Heart rate (0.1 mg/kg i.v., 4 min): 116 ± 8 beats per min
- Mean arterial pressure (0.1 mg/kg i.v., 4 min): 100 ± 3 mmHg
- AH time (0.1 mg/kg i.v., 5 min): 96 ± 6 ms
- Heart rate (0.1 mg/kg i.v., 5 min): 123 ± 7 beats per min
- Mean arterial pressure (0.1 mg/kg i.v., 5 min): 100 ± 3 mmHg
- AH time (0.2 mg/kg i.v., 0 min): 99 ± 5 ms
- Heart rate (0.2 mg/kg i.v., 0 min): 136 ± 9 beats per min
- Mean arterial pressure (0.2 mg/kg i.v., 0 min): 89 ± 2 mmHg
- AH time (0.2 mg/kg i.v., 1 min): 111 ± 8 ms
- Heart rate (0.2 mg/kg i.v., 1 min): 134 ± 8 beats per min
- Mean arterial pressure (0.2 mg/kg i.v., 1 min): 95 ± 4 mmHg
- AH time (0.2 mg/kg i.v., 2 min): 115 ± 9 ms
- Heart rate (0.2 mg/kg i.v., 2 min): 129 ± 7 beats per min
- Mean arterial pressure (0.2 mg/kg i.v., 2 min): 94 ± 4 mmHg
- AH time (0.2 mg/kg i.v., 3 min): 113 ± 8 ms
- Heart rate (0.2 mg/kg i.v., 3 min): 124 ± 7 beats per min
- Mean arterial pressure (0.2 mg/kg i.v., 3 min): 97 ± 4 mmHg
- AH time (0.2 mg/kg i.v., 4 min): 115 ± 9 ms
- Heart rate (0.2 mg/kg i.v., 4 min): 125 ± 8 beats per min
- Mean arterial pressure (0.2 mg/kg i.v., 4 min): 99 ± 3 mmHg
- AH time (0.2 mg/kg i.v., 5 min): 116 ± 9 ms
- Heart rate (0.2 mg/kg i.v., 5 min): 123 ± 9 beats per min
- Mean arterial pressure (0.2 mg/kg i.v., 5 min): 98 ± 3 mmHg
- AH time (0.4 mg/kg i.v., 0 min): 111 ± 5 ms
- Mean arterial pressure (0.4 mg/kg i.v., 0 min): 87 ± 3 mmHg
- Heart rate (0.4 mg/kg i.v., 0 min, listed as 80/205): 155 ± 12 beats per min
- AH time (0.4 mg/kg i.v., 1 min): 121 ± 4 ms
- Mean arterial pressure (0.4 mg/kg i.v., 1 min): 95 ± 3 mmHg
- Heart rate (0.4 mg/kg i.v., 1 min, listed as 80/205): 153 ± 11 beats per min
- AH time (0.4 mg/kg i.v., 2 min): 123 ± 5 ms
- Mean arterial pressure (0.4 mg/kg i.v., 2 min): 97 ± 3 mmHg
- Heart rate (0.4 mg/kg i.v., 2 min, listed as 80/205): 149 ± 10 beats per min
- AH time (0.4 mg/kg i.v., 3 min): 125 ± 6 ms
- Mean arterial pressure (0.4 mg/kg i.v., 3 min): 101 ± 3 mmHg
- Heart rate (0.4 mg/kg i.v., 3 min, listed as 80/205): 147 ± 10 beats per min
- AH time (0.4 mg/kg i.v., 4 min): 127 ± 6 ms
- Mean arterial pressure (0.4 mg/kg i.v., 4 min): 103 ± 3 mmHg
- Heart rate (0.4 mg/kg i.v., 4 min, listed as 80/205): 140 ± 7 beats per min
- AH time (0.4 mg/kg i.v., 5 min): 129 ± 6 ms
- Mean arterial pressure (0.4 mg/kg i.v., 5 min): 103 ± 3 mmHg
- Heart rate (0.4 mg/kg i.v., 5 min, listed as 80/205): 135 ± 9 beats per min
- Occurrence of second and third degree AV conduction block (0.4 mg/kg i.v., listed as 80R/20S-verapamil): 3 animals

Structure (SMILES): COc1ccc(CCN(C)CCCC(C#N)(c2ccc(OC)c(OC)c2)C(C)C)cc1OC (racemic) [90/10S]
- AH time (0.1 mg/kg i.v., 0 min): 87 ± 6 ms
- Heart rate (0.1 mg/kg i.v., 0 min): 111 ± 7 beats per min
- Mean arterial pressure (0.1 mg/kg i.v., 0 min): 94 ± 3 mmHg
- AH time (0.1 mg/kg i.v., 1 min): 88 ± 6 ms
- Heart rate (0.1 mg/kg i.v., 1 min): 103 ± 7 beats per min
- Mean arterial pressure (0.1 mg/kg i.v., 1 min): 97 ± 4 mmHg
- AH time (0.1 mg/kg i.v., 2 min): 90 ± 6 ms
- Heart rate (0.1 mg/kg i.v., 2 min): 104 ± 6 beats per min
- Mean arterial pressure (0.1 mg/kg i.v., 2 min): 99 ± 3 mmHg
- AH time (0.1 mg/kg i.v., 3 min): 91 ± 6 ms
- Heart rate (0.1 mg/kg i.v., 3 min): 101 ± 8 beats per min
- Mean arterial pressure (0.1 mg/kg i.v., 3 min): 99 ± 3 mmHg
- AH time (0.1 mg/kg i.v., 4 min): 89 ± 6 ms
- Heart rate (0.1 mg/kg i.v., 4 min): 101 ± 7 beats per min
- Mean arterial pressure (0.1 mg/kg i.v., 4 min): 100 ± 4 mmHg
- AH time (0.1 mg/kg i.v., 5 min): 89 ± 7 ms
- Heart rate (0.1 mg/kg i.v., 5 min): 103 ± 7 beats per min
- Mean arterial pressure (0.1 mg/kg i.v., 5 min): 99 ± 3 mmHg
- AH time (0.2 mg/kg i.v., 0 min): 91 ± 7 ms
- Heart rate (0.2 mg/kg i.v., 0 min): 123 ± 7 beats per min
- Mean arterial pressure (0.2 mg/kg i.v., 0 min): 94 ± 4 mmHg
- AH time (0.2 mg/kg i.v., 1 min): 95 ± 8 ms
- Heart rate (0.2 mg/kg i.v., 1 min): 124 ± 10 beats per min
- Mean arterial pressure (0.2 mg/kg i.v., 1 min): 98 ± 4 mmHg
- AH time (0.2 mg/kg i.v., 2 min): 99 ± 8 ms
- Heart rate (0.2 mg/kg i.v., 2 min): 116 ± 7 beats per min
- Mean arterial pressure (0.2 mg/kg i.v., 2 min): 99 ± 4 mmHg
- AH time (0.2 mg/kg i.v., 3 min): 98 ± 7 ms
- Heart rate (0.2 mg/kg i.v., 3 min): 113 ± 6 beats per min
- Mean arterial pressure (0.2 mg/kg i.v., 3 min): 99 ± 4 mmHg
- AH time (0.2 mg/kg i.v., 4 min): 97 ± 7 ms
- Heart rate (0.2 mg/kg i.v., 4 min): 116 ± 7 beats per min
- Mean arterial pressure (0.2 mg/kg i.v., 4 min): 100 ± 4 mmHg
- AH time (0.2 mg/kg i.v., 5 min): 104 ± 7 ms
- Heart rate (0.2 mg/kg i.v., 5 min): 118 ± 8 beats per min
- Mean arterial pressure (0.2 mg/kg i.v., 5 min): 101 ± 3 mmHg
- AH time (0.4 mg/kg i.v., 0 min): 100 ± 9 ms
- Heart rate (0.4 mg/kg i.v., 0 min): 145 ± 10 beats per min
- Mean arterial pressure (0.4 mg/kg i.v., 0 min): 83 ± 7 mmHg
- AH time (0.4 mg/kg i.v., 1 min): 111 ± 10 ms
- Heart rate (0.4 mg/kg i.v., 1 min): 134 ± 9 beats per min
- Mean arterial pressure (0.4 mg/kg i.v., 1 min): 89 ± 7 mmHg
- AH time (0.4 mg/kg i.v., 2 min): 116 ± 10 ms
- Heart rate (0.4 mg/kg i.v., 2 min): 128 ± 10 beats per min
- Mean arterial pressure (0.4 mg/kg i.v., 2 min): 90 ± 7 mmHg
- AH time (0.4 mg/kg i.v., 3 min): 116 ± 12 ms
- Heart rate (0.4 mg/kg i.v., 3 min): 128 ± 11 beats per min
- Mean arterial pressure (0.4 mg/kg i.v., 3 min): 90 ± 7 mmHg
- AH time (0.4 mg/kg i.v., 4 min): 114 ± 9 ms
- Heart rate (0.4 mg/kg i.v., 4 min): 129 ± 10 beats per min
- Mean arterial pressure (0.4 mg/kg i.v., 4 min): 93 ± 7 mmHg
- AH time (0.4 mg/kg i.v., 5 min): 112 ± 10 ms
- Heart rate (0.4 mg/kg i.v., 5 min): 125 ± 9 beats per min
- Mean arterial pressure (0.4 mg/kg i.v., 5 min): 92 ± 7 mmHg
- Sinus node recovery time (SNRT), significance (paced at 200 beats/min): significant decrease
